Test system: 327498-153-R-J2-PDC complex spheroid growth, % test/control
Test: Anticancer human tumor 327498-153-R-J2-PDC patient-derived uterine carcinosarcoma cell line growth inhibition [Asc]
Conditions: for IC50: curve of first compound; for viability, T/C: stronger effect = lower value; active = viability on the fitted dose curve at most 10% of control; inactive = the rest
Procedure, shortened: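 Stromal components (HUVEC and hMSC) are co-assembled with the cancer cells into multicellular spheroids. Drugs are then added singly or paired, at concentrations falling by half-log increments from a clinically achievable maximum, capped at 10 microM without known Cmax.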

[1] = second compound 0.03 µM, first compound 0.0316 µM
[2] = second compound 0.03 µM, first compound 0.1 µM
[3] = second compound 0.03 µM, first compound 0.316 µM
[4] = second compound 0.03 µM, first compound 1 µM
[5] = second compound 0.0949 µM, first compound 0.0316 µM
[6] = second compound 0.0949 µM, first compound 0.1 µM
[7] = second compound 0.0949 µM, first compound 0.316 µM
[8] = second compound 0.0949 µM, first compound 1 µM
[9] = second compound 0.3 µM, first compound 0.0316 µM
[10] = second compound 0.3 µM, first compound 0.1 µM
[11] = second compound 0.3 µM, first compound 0.316 µM
[12] = second compound 0.3 µM, first compound 1 µM
[13] = second compound 0.949 µM, first compound 0.0316 µM
[14] = second compound 0.949 µM, first compound 0.1 µM
[15] = second compound 0.949 µM, first compound 0.316 µM
[16] = second compound 0.949 µM, first compound 1 µM
[17] = second compound 3 µM, first compound 0.0316 µM
[18] = second compound 3 µM, first compound 0.1 µM
[19] = second compound 3 µM, first compound 0.316 µM
[20] = second compound 3 µM, first compound 1 µM
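Note: spheroids exposed to compound for 7 days after 3 days of growth.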
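Throughout, for viability, T/C: 100% = DMSO vehicle control wells.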

O=C(c1cc(Cc2n[nH]c(=O)c3ccccc23)ccc1F)N1CCN(C(=O)C2CC2)CC1 + CCN1C(C(=O)NC23CCC(C(=O)O)(CC2)CC3)C(c2cccc(Cl)c2F)C2(C(=O)Nc3cc(Cl)ccc32)C12CCCCC2
1720 nM: IC50 (second compound 0.03 µM)
inactive: viability, T/C [1] 94.9% | viability, T/C [2] 83.6% | viability, T/C [3] 80.9% | viability, T/C [4] 63.6% | viability, T/C (second compound 0.03 µM, first compound 3.16 µM) 35% | viability, T/C [5] 74.5% | viability, T/C [6] 63% | viability, T/C [7] 61% | viability, T/C [8] 42.8% | viability, T/C (second compound 0.0949 µM, first compound 3.16 µM) 14.8% | viability, T/C [9] 33.6% | viability, T/C [10] 29.5% | viability, T/C [11] 20.9% | viability, T/C [12] 17.4%
< 31.6 nM: IC50 (second compound 0.3 µM) | IC50 (second compound 0.949 µM) | IC50 (second compound 3 µM)
active: viability, T/C (second compound 0.03 µM, first compound 10 µM) 9.54% | viability, T/C (second compound 0.0949 µM, first compound 10 µM) 5.01% | viability, T/C (second compound 0.3 µM, first compound 3.16 µM) 5.47% | viability, T/C (second compound 0.3 µM, first compound 10 µM) 3.11% | viability, T/C [13] 9.62% | viability, T/C [14] 5.99% | viability, T/C [15] 4.91% | viability, T/C [16] 4.88% | viability, T/C (second compound 0.949 µM, first compound 3.16 µM) 3.33% | viability, T/C (second compound 0.949 µM, first compound 10 µM) 2.8% | viability, T/C [17] 2.94% | viability, T/C [18] 3.36% | viability, T/C [19] 2.53% | viability, T/C [20] 3.39% | viability, T/C (second compound 3 µM, first compound 3.16 µM) 2.26% | viability, T/C (second compound 3 µM, first compound 10 µM) 2.33%
592 nM: IC50 (second compound 0.0949 µM)

C=C(F)C(=O)N1CCN(c2nc(OCC3CCCN3C)nc3c2CCN(c2cccc4cccc(Cl)c24)C3)CC1CC#N (stereo not given) + CNC(C)C(=O)NC1CN(S(=O)(=O)c2cccc(S(=O)(=O)N3CCC4CCC(C(=O)NC(c5ccccc5)c5ccccc5)N4C(=O)C(NC(=O)C(C)NC)C3)c2)CCC2CCC(C(=O)NC(c3ccccc3)c3ccccc3)N2C1=O
1350 nM: IC50 (second compound 0.1 µM)
1310 nM: IC50 (second compound 0.01 µM)
1200 nM: IC50 (second compound 0.316 µM)
985 nM: IC50 (second compound 1 µM)
inactive: viability, T/C (second compound 0.01 µM, first compound 0.0316 µM) 74.3% | viability, T/C (second compound 0.01 µM, first compound 0.1 µM) 71% | viability, T/C (second compound 0.01 µM, first compound 0.316 µM) 58.4% | viability, T/C (second compound 0.01 µM, first compound 1 µM) 61.6% | viability, T/C (second compound 0.01 µM, first compound 3.16 µM) 14.5% | viability, T/C (second compound 0.0316 µM, first compound 0.0316 µM) 73.2% | viability, T/C (second compound 0.0316 µM, first compound 0.1 µM) 71.6% | viability, T/C (second compound 0.0316 µM, first compound 0.316 µM) 64.5% | viability, T/C (second compound 0.0316 µM, first compound 1 µM) 56.8% | viability, T/C (second compound 0.0316 µM, first compound 3.16 µM) 16.2% | viability, T/C (second compound 0.1 µM, first compound 0.0316 µM) 76% | viability, T/C (second compound 0.1 µM, first compound 0.1 µM) 67.6% | viability, T/C (second compound 0.1 µM, first compound 0.316 µM) 74.3% | viability, T/C (second compound 0.1 µM, first compound 1 µM) 62.6% | viability, T/C (second compound 0.1 µM, first compound 3.16 µM) 14.1% | viability, T/C (second compound 0.316 µM, first compound 0.0316 µM) 75.3% | viability, T/C (second compound 0.316 µM, first compound 0.1 µM) 74.7% | viability, T/C (second compound 0.316 µM, first compound 0.316 µM) 66% | viability, T/C (second compound 0.316 µM, first compound 1 µM) 58.1% | viability, T/C (second compound 0.316 µM, first compound 3.16 µM) 11.2% | viability, T/C (second compound 1 µM, first compound 0.0316 µM) 86% | viability, T/C (second compound 1 µM, first compound 0.1 µM) 78.8% | viability, T/C (second compound 1 µM, first compound 0.316 µM) 66.3% | viability, T/C (second compound 1 µM, first compound 1 µM) 55.5% | viability, T/C (second compound 1 µM, first compound 3.16 µM) 15%
1180 nM: IC50 (second compound 0.0316 µM)
active: viability, T/C (second compound 0.01 µM, first compound 10 µM) 0.14% | viability, T/C (second compound 0.0316 µM, first compound 10 µM) 0.14% | viability, T/C (second compound 0.1 µM, first compound 10 µM) 0.13% | viability, T/C (second compound 0.316 µM, first compound 10 µM) 0.14% | viability, T/C (second compound 1 µM, first compound 10 µM) 0.21%

O=C(c1ccc(F)c(F)c1Nc1ccc(I)cc1F)N1CC(O)([C@@H]2CCCCN2)C1 + CCN1C(C(=O)NC23CCC(C(=O)O)(CC2)CC3)C(c2cccc(Cl)c2F)C2(C(=O)Nc3cc(Cl)ccc32)C12CCCCC2
inactive: viability, T/C (second compound 0.03 µM, first compound 0.00316 µM) 98.2% | viability, T/C (second compound 0.03 µM, first compound 0.01 µM) 85% | viability, T/C [1] 70.5% | viability, T/C [2] 64.5% | viability, T/C [3] 50.3% | viability, T/C [4] 16% | viability, T/C (second compound 0.0949 µM, first compound 0.00316 µM) 67% | viability, T/C (second compound 0.0949 µM, first compound 0.01 µM) 61.4% | viability, T/C [5] 55.3% | viability, T/C [6] 41.3% | viability, T/C [7] 28.4% | viability, T/C (second compound 0.3 µM, first compound 0.00316 µM) 37.2% | viability, T/C (second compound 0.3 µM, first compound 0.01 µM) 29.1% | viability, T/C [9] 17.3% | viability, T/C [10] 15.7%
active: viability, T/C [8] 8.51% | viability, T/C [11] 11.1% | viability, T/C [12] 3.71% | viability, T/C (second compound 0.949 µM, first compound 0.00316 µM) 8.99% | viability, T/C (second compound 0.949 µM, first compound 0.01 µM) 6.26% | viability, T/C [13] 4.91% | viability, T/C [14] 4.3% | viability, T/C [15] 2.73% | viability, T/C [16] 1.43% | viability, T/C (second compound 3 µM, first compound 0.00316 µM) 3.41% | viability, T/C (second compound 3 µM, first compound 0.01 µM) 1.87% | viability, T/C [17] 2.1% | viability, T/C [18] 1.08% | viability, T/C [19] 1.35% | viability, T/C [20] 0.86%
< 3.16 nM: IC50 (second compound 0.3 µM) | IC50 (second compound 0.949 µM) | IC50 (second compound 3 µM)
227 nM: IC50 (second compound 0.03 µM)
47.8 nM: IC50 (second compound 0.0949 µM)

NC(=O)C(=Cn1cnc(-c2cc(C(F)(F)F)cc(C(F)(F)F)c2)n1)c1cncnc1 + CCN1C(C(=O)NC23CCC(C(=O)O)(CC2)CC3)C(c2cccc(Cl)c2F)C2(C(=O)Nc3cc(Cl)ccc32)C12CCCCC2
8.01 nM: IC50 (second compound 0.0949 µM)
< 0.949 nM: IC50 (second compound 0.3 µM) | IC50 (second compound 0.949 µM) | IC50 (second compound 3 µM)
active: viability, T/C (second compound 0.03 µM, first compound 0.3 µM) 1.47% | viability, T/C (second compound 0.0949 µM, first compound 0.0949 µM) 5.19% | viability, T/C (second compound 0.0949 µM, first compound 0.3 µM) 0.5% | viability, T/C (second compound 0.3 µM, first compound 0.03 µM) 5.64% | viability, T/C (second compound 0.3 µM, first compound 0.0949 µM) 1.54% | viability, T/C (second compound 0.3 µM, first compound 0.3 µM) 0.36% | viability, T/C (second compound 0.949 µM, first compound 0.000949 µM) 9.07% | viability, T/C (second compound 0.949 µM, first compound 0.003 µM) 5.81% | viability, T/C (second compound 0.949 µM, first compound 0.00949 µM) 5.57% | viability, T/C (second compound 0.949 µM, first compound 0.03 µM) 1.96% | viability, T/C (second compound 0.949 µM, first compound 0.0949 µM) 0.72% | viability, T/C (second compound 0.949 µM, first compound 0.3 µM) 0.32% | viability, T/C (second compound 3 µM, first compound 0.000949 µM) 4.84% | viability, T/C (second compound 3 µM, first compound 0.003 µM) 2.37% | viability, T/C (second compound 3 µM, first compound 0.00949 µM) 1.32% | viability, T/C (second compound 3 µM, first compound 0.03 µM) 1% | viability, T/C (second compound 3 µM, first compound 0.0949 µM) 0.92% | viability, T/C (second compound 3 µM, first compound 0.3 µM) 0.41%
inactive: viability, T/C (second compound 0.03 µM, first compound 0.000949 µM) 102% | viability, T/C (second compound 0.03 µM, first compound 0.003 µM) 83.2% | viability, T/C (second compound 0.03 µM, first compound 0.00949 µM) 75.5% | viability, T/C (second compound 0.03 µM, first compound 0.03 µM) 49.4% | viability, T/C (second compound 0.03 µM, first compound 0.0949 µM) 8.49% | viability, T/C (second compound 0.0949 µM, first compound 0.000949 µM) 73.5% | viability, T/C (second compound 0.0949 µM, first compound 0.003 µM) 70.8% | viability, T/C (second compound 0.0949 µM, first compound 0.00949 µM) 45.9% | viability, T/C (second compound 0.0949 µM, first compound 0.03 µM) 16.1% | viability, T/C (second compound 0.3 µM, first compound 0.000949 µM) 40.5% | viability, T/C (second compound 0.3 µM, first compound 0.003 µM) 33.2% | viability, T/C (second compound 0.3 µM, first compound 0.00949 µM) 22.8%
24.8 nM: IC50 (second compound 0.03 µM)

Source: PubChem BioAssay AID1963424 (Molecular Pharmacology Branch, DTP, NCI, 2024)
